Source: BigSolDB 2.1

CO[C@@]1(NC(=O)CSCC#N)C(=O)N2C(C(=O)O)=C(CSc3nnnn3C)CS[C@@H]21
solubility (mole fraction)
Details | 278.15 K | 283.15 K | 288.15 K | 293.15 K | 298.15 K | 303.15 K
in ethanol | 0.000266 | 0.000276 | 0.000343 | 0.000435 | 0.00049 | 0.000659
in methanol | 0.00163 | 0.00187 | 0.00222 | 0.00273 | 0.00364 | 0.00445
